In data set [1] the target is T1, Calf skin collagen Type 1 (Bos taurus, UniProt P02453+P02465).
T1 construct: Calf skin collagen Type 1 (1.3 mg; Sigma); purchased Sigma; host or cells: calf skin (tissue-derived)
The data set is described as follows: 3DG-induced collagen crosslinking, CNBr digestion and SDS-PAGE. The data set is classed as biochemical. The following applies: 37° C., 24 hours. The protocol:
Collagen type I was treated with 3DG in the presence or absence of arginine. The samples were subjected to cyanogen bromide (CNBr) digestion, electrophoresed on a 16.5% SDS Tris-tricine gel, and then the gels were processed using silver stain techniques to visualize the proteins. Lane 1 contains molecular weight marker standards. Lanes 2 and 5 contain 10 and 20 μl of the collagen mixture following CNBr digestion. Lanes 3 and 6 contain the collagen mixture treated with 3DG and then digested with CNBr, and loaded at 10 and 20 μl, respectively. Lanes 4 and 7 contain the mixture of collagen incubated with 5 mM 3DG and 10 mM arginine and then digested with CNBr, and loaded at 10 and 20 μl, respectively.
Collagen I was incubated in the presence or absence of 3DG in vitro. Calf skin collagen Type 1 (1.3 mg; Sigma) was incubated in 20 mM Na-phosphate buffer, pH 7.25, either alone, with 5 mM 3DG, or with 5 mM 3DG plus 10 mM arginine, in a total volume of 1 ml at 37° C. for 24 hours and then frozen and lyophilized. The residue was dissolved in 0.5 ml of 70% formic acid and cyanogen bromide was added (20:1, w/w). This solution was incubated at 30° C. for 18 hours. […] The extent of collagen crosslinking was determined by applying equal volumes of sample and analyzing by SDS-PAGE electrophoresis (16.5% Tris-tricine gel), as determined by the effects of 3DG on the migration of collagen.

Data set [2] in a line: Skin elasticity (vacuum pull needed to displace skin) in STZ-diabetic and normal rats. The data set is classed as in vivo. The note with it: 50 mg/kg daily subcutaneous, eight weeks. The protocol:
Experiments were performed to determine the effects of DYN 12 on the loss of skin elasticity associated with diabetes. To this end, two groups of STZ-diabetic rats and two groups of normal rats were subjected to treatment with DYN 12 or saline. One group of STZ-diabetic rats (n=9) received daily subcutaneous injections of DYN 12 at 50 mg/kg for eight weeks, as did one group of normal rats (n=6). A group of control diabetic rats (n=10) and a group of normal rats (n=6) received saline instead of DYN 12. One rat was removed from the diabetic DYN 12 group after 2 weeks because its blood glucose readings were inconsistent (too low) with other diabetic rats.
A non-invasive procedure based on CyberDERM, Inc. technology utilizing a skin elasticity measurement device was used to test the effects of DYN 12 treatment on skin elasticity. The procedure provides for non-invasive measurement of skin elasticity based upon the amount of vacuum pull required to displace skin. A suction cup probe is adhered to an area of shaved skin in order to form an airtight seal. Then, a vacuum is applied to the area of the skin inside the suction cup until the skin is displaced past a sensor located inside the probe. Accordingly, the more pressure that is required to displace the skin, the less elastic the skin is.

Data set [3] is described as follows: Locus of 3-O-methyl sorbitollysine uptake in vivo (tissue, urine, plasma analysis). On the set-up: species or system rats. How it is done: Six rats were injected intraperitoneally with […] (4.4 mg) of 3-O-methyl sorbitollysine. Urine was collected for 3 hours, after which the rats were sacrificed. The tissues to be analyzed were removed and freeze clamped in liquid nitrogen. Perchloric acid extracts of the tissues were used for metabolite analysis. The tissues examined were taken from the brain, heart, muscle, sciatic nerve, spleen, pancreas, liver, and kidney. Plasma was also analyzed.

Data set [4] deals with 3DG. Briefly: Plasma 3DG levels in diabetic and non-diabetic rats treated with 3-O-methyl sorbitollysine. The data set is classed as in vivo. The note with it: 50 mg/kg injections, within one week. The protocol: A cohort of twelve diabetic rats was divided into two groups of six. The first group received saline-only injections, and the second received injections of 3-O-methyl sorbitollysine (50 mg/kg body weight) in saline solution. The same procedure was conducted on a cohort of twelve non-diabetic rats.

Data set [5] can be described thus: Muscle strength of alert diabetic rats. The data set is classed as in vivo. The note with it: measured while alert, preliminary data. The source says: The present invention also encompasses methods for prevention of hair loss associated with or mediated by loss of microcirculation and/or loss of neuro-innervation in populations of aging, sclerodermic and/or in diabetic individuals. This is because 3DG is a known precursor to the formation of AGEs which are known to be causally connected to the development of neuropathy. […] This supports the concept that maintenance of nerve conduction and microcirculation that supports nerve innervation is deleteriously affected not only by AGEs, but also 3DG. Similarly, where 3DG would cause blockage of the microcirculation that supports nerve innervation of the hair follicle, the hair follicle will atrophy and die, as is the case in neuropathy.Accordingly, the present invention includes methods for preventing hair loss, where such hair loss is associated with or mediated by the presence of 3DG in the skin proximal to a hair follicle/shaft.
Skin elasticity measurements were also taken on the test subjects as described above, but without sedating the test animals before measurement. FIG. 15 illustrates skin elasticity measurements taken on the hind leg of the test subjects while the subjects were alert and being restrained by a technician.
In these experiments, the animals were fiercely fighting restraint and the results are different.

Details of data set [6]: species or system rats. The following applies: rat, in vivo. The protocol: Two rats were injected daily with 5 μmols of either FL or mannitol (used as a control) for 5 days. The animals were sacrificed and the kidneys removed and dissected into the cortex and medulla. Tissues were homogenized in 5 volumes of 50 mM Tris-HCl containing 150 mM KCl, 15 mM MgCl2 and 5 mM DTT, pH 7.5. Cellular debris was removed by centrifugation at 10,000×g for 15 minutes, and the supernatant was then centrifuged at 150,000×g for 70 minutes. The soluble proteins were analyzed by SDS PAGE on 12% polyacrylamide gels as well as on 4-15 and 10-20% gradient gels.

Data set [7] concerns mouse mesangial cells. The data set is described as follows: Type IV collagen production in kidney cells in vitro. The data set is classed as cell-based. The protocol:
Type IV collagen production was measured in mouse mesangial cells. Controls (grown with […]) produced 300 ng of Type IV collagen per 10,000 cells, whereas fructoselysine treated cells (5 or 10 mM fructoselysine with 10 mM glucose) produced 560 and 1100 ng/10,000 cells.

Details of data set [8]: species or system human. The following applies: in vivo. How it is done: Volunteers spent two days on a fructoselysine-free diet and then consumed 22.5 g of the food product prepared as described herein, thus effectively receiving a 2 gram dose of fructoselysine. Urine was collected at 2 hour intervals for 14 hours and a final collection was made at 24 hours. FL was measured by HPLC with a Waters 996 diode Array using a Waters C18 Free Amino Acid column at 46° C. and a gradient elution system of acetonitrile-methyl alcohol-water (45:15:40) into acetonitrile-sodium acetate-water (6:2:92) at 1 ml/min. Quantitation employed an internal standard of meglumine. 3DF was measured by HPLC after deionization of the sample. Analyses were performed on a Dionex DX-500 HPLC system employing a PA1 column (Dionex) and eluting with 32 mM sodium hydroxide at 1 ml/min. Quantitation was performed from standard curves obtained daily with synthetic 3DF. 3DG was measured by GC-MS after deionization of the sample. 3DG was derivatized with a 10-fold excess of diaminonaphthalene in PBS. Ethyl acetate extraction gave a salt free fraction which was converted to the trimethyl silyl ethers with Tri-Sil (Pierce). Analysis was performed on a Hewlett-Packard 5890 selected ion monitoring GC-MS system. […] Quantitation of 3DG employed selected ion monitoring using an internal standard of U-13C-3DG.

Several values for one entry are separate records, joined by “and”; a condition that tells them apart may be missing. Equal values may be shown once.

T1 sequence (P02453 162-1217 limits assumed): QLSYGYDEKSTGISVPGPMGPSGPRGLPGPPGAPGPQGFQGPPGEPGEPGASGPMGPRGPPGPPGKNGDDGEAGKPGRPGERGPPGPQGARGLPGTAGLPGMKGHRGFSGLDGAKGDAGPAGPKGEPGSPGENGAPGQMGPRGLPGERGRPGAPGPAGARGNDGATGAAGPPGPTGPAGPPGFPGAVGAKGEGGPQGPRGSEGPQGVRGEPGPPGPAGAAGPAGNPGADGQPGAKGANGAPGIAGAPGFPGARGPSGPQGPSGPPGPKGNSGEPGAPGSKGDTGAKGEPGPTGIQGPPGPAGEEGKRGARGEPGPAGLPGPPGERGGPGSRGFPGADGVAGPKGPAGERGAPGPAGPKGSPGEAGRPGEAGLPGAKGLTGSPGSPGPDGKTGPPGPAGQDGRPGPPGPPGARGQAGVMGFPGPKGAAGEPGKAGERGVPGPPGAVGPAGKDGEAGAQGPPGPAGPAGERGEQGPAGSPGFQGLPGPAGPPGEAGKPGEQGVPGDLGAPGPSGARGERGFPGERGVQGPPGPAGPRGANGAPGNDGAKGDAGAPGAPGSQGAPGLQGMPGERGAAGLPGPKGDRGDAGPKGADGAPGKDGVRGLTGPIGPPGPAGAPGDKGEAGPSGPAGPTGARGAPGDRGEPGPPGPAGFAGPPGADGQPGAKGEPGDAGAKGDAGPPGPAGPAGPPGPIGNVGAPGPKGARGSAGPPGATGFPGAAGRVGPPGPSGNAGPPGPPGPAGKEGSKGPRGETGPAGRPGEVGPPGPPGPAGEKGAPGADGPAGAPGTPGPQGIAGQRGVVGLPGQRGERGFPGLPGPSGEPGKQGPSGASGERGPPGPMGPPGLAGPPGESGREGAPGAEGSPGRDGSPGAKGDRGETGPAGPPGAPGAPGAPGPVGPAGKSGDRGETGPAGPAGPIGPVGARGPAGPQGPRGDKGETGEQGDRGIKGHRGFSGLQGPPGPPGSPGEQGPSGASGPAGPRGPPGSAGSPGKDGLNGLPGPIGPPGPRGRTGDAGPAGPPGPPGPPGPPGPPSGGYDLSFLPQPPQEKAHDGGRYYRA
T1 sequence (P02465 80-1117 limits assumed): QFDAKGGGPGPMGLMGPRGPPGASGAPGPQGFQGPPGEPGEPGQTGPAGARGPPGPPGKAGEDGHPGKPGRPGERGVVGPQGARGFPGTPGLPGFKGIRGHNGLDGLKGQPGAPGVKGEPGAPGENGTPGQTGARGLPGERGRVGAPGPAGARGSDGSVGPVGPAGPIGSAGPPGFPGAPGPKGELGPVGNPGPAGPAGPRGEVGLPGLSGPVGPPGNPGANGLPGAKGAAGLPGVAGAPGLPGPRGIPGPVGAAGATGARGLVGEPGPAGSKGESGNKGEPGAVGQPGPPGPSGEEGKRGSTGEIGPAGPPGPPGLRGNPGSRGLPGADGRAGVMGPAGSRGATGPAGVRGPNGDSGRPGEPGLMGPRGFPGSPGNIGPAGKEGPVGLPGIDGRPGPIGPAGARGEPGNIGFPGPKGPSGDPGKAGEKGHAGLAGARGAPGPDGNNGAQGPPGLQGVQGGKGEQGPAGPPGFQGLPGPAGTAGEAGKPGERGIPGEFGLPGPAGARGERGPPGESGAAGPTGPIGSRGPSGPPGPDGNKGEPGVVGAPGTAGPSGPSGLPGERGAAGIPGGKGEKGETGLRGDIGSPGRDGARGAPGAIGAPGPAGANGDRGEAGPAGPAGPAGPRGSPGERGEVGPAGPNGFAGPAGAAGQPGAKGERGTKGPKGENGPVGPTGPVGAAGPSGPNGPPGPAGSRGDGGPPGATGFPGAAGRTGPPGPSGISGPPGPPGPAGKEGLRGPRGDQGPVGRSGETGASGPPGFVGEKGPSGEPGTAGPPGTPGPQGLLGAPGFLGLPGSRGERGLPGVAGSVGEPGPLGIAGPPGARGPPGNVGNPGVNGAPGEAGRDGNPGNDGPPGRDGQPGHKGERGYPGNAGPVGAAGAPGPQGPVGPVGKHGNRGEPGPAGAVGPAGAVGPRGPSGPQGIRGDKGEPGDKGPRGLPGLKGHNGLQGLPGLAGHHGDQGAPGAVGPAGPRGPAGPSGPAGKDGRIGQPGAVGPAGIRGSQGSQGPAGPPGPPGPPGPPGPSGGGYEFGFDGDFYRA

With `O=CC(=O)C[C@H](O)[C@H](O)CO` [3DG, 3-deoxyglucosone], the “collagen crosslinking (migration on SDS-PAGE)” value in data set [1] (5 mM 3DG) is “caused the collagen to migrate as if it had a higher molecular weight”.
Consider `COC(C(O)CNCCCCC(N)C(=O)O)C(O)C(O)CO` (stereo not drawn) [DYN 12, 3-O-methyl sorbitollysine], for which the “amount of pressure needed to displace the skin” value in data set [2] came out at 3.2±1.2 kPA. For the same compound, the “compound contained in plasma” value in data set [3] (3 hours after i.p. injection) is recorded as “plasma did not”. The “% 3OMeSL recovered (injected dose recovered from urine and kidney)” value in data set [3] (individual rats, urine plus kidneys, 3 hours, listed as 3OMeSL) was 91.5% and 38.8% and 96.4% and 61.2% and 53.0% and 53.3%. The entries for the “plasma 3DG level” value in data set [4] (Diabetic rats) and in data set [4] (Non-diabetic rats) were 0.44 ± 0.10 µM and 0.13 ± 0.02 µM, respectively. Moreover, the “muscle strength vs diabetic rats not so treated” value in data set [5] is recorded as “stronger muscle strength”.
Take `N=C(N)NCCC[C@H](N)C(=O)O` [arginine]: in data set [1] (5 mM 3DG plus 10 mM arginine), the “inhibition of 3DG induced collagen crosslinking (high molecular weight bands)” value is recorded as “fewer high molecular bands”.
Regarding `N[C@@H](CCCCNCC(=O)[C@@H](O)[C@H](O)[C@H](O)CO)C(=O)O` [fructoselysine, 1-deoxy-1-(e-aminolysine)-fructose], the “soluble kidney proteins on SDS PAGE vs mannitol-injected animal” value in data set [6] is recorded as “lower molecular weight bands were missing or visually reduced”. Besides, the entries for the “Type IV collagen produced” value in data set [7] (5 mM fructoselysine with 10 mM glucose) and in data set [7] (10 mM fructoselysine with 10 mM glucose) were 560 ng/10,000 cells and 1100 ng/10,000 cells, respectively. In addition, the “time of peak 3DF excretion in urine after the FL bolus” value in data set [8] was “about 4 hours”.

Source of the values: patent US7671019B2, “3-deoxyglucosone and skin” (Dynamis Therapeutics, Inc., priority 2002, dated 2010).
